Laboratory results taken from paper PMC9664868, “Dephospho-Coenzyme A Kinase Is an Exploitable Drug Target against Plasmodium falciparum: Identification of Selective Inhibitors by High-Throughput Screening of a Large Chemical Compound Library” (Antimicrobial Agents and Chemotherapy, 2022).
Entries after “also recorded” stand apart in the source; their conditions may differ.

Legend:
HepG2 cell line = test: Cytotoxicity assay (Cell Counting Kit-8); assay type: cell-based, human; conditions: Homo sapiens, HepG2; Table S1; means ± SEM; read-out: IC50 (μM) HepG2
Description: Cytotoxicity against human cells was evaluated using the human liver carcinoma HepG2 cell line. HepG2 cells were cultured in D-MED supplemented with 4 mM L-glutamine and 10% fetal bovine serum (FBS) in a 75-cm^2 flask (Violamo) at 37°C. For the cytotoxicity assay, HepG2 cells in semiconfluent state were detached from the flask by incubating the cells with 5 mL D-MEM containing 0.25% trypsin-EDTA. After detachment, HepG2 cells were resuspended in D-MEM-supplemented L-glutamine and FBS, and cell viability was evaluated by incubating cells with 0.4% Trypan blue on a hemocytometer. An approximately 50-μL suspension containing 3,000 cells was dispensed into each well on a 384-well clear-bottom plate using a Multidrop Combi dispenser. Compounds dissolved in DMSO had been dispensed into wells to yield final concentrations of 100, 20, 4, 0.8, and 0.2 μM before cells were added. After cells were added to the plates, they were cultured at 37°C under 5% CO2. After 48 h cultivation, 5 μL of Cell Counting Kit-8 (Dojindo, Japan) was added, and the plates were further incubated for 2 h to assess cell growth and survival.

PfDPCK = PfDPCK (Plasmodium falciparum, UniProt Q8IL34); test: Mechanism of PfDPCK inhibition by Lineweaver-Burk plot; assay type: biochemical
Description: In order to understand the mechanism of PfDPCK inhibition of the identified compounds, we independently selected compounds from 359 PfDPCK-specific inhibitor candidates (showing >40% inhibition at 10 μM against PfDPCK), based on the more stringent criteria of >80% inhibition at 10 μM against PfDPCK and <10% inhibition against HsCOASY, to yield 30 hits. The hits were prioritized using a multiparameter optimization (MPO) scoring model, developed by MMV (https://www.optibrium.com/downloads/scoring-profiles/mmv-antimalarial-scoring-profile/) based on calculated physicochemical properties, including molecular weight, logP, hydrogen bond donors and acceptors, rotatable bonds, and structural alerts ([20], [21]). We finally chose six representative compounds (A-15, A-33, and A-69, shown in Table S1, and other three compounds; A-126, A-127, and A-128) by manual inspection with “chemist eye” for chemical attractiveness (druglikeness). […] Furthermore, two compounds, A-33 and A-69, are considered to be pan-assay interference compounds (PAINS) (phenolic Mannich base) ([22]). We consequently focused on two commercially available compounds (A-15 and A-127) (Fig. 6A) and investigated their mechanism of inhibition. We differentiated the type of inhibition by Lineweaver-Burk plot with various concentrations of one substrate (dephospho-CoA or ATP), while the other substrate was given in saturating concentrations in kinetic studies (Fig. 5).
FIG 5 Lineweaver-Burk plots showing inhibition of two compounds, compound A-15 (A, B) and compound A-127 (C, D) on the PfDPCK activity. The enzymatic activities were determined with various concentrations of dephospho-CoA and 200 μM ATP (A, C) or various concentrations of ATP and 200 μM dephospho-CoA (B, D) in the presence of a range of concentrations of inhibitors. Data are shown in means ± SEMs of triplicate.
PfDPCK and HsCOASY activity was measured by quantifying ADP produced in the reaction by a coupling assay using the ADP Hunter Plus assay kit (DiscoverX, USA) according to the manufacturer's instructions. Briefly, enzymatic reactions were carried out in a 20-μL mixture of assay buffer containing 15 mM HEPES, 20 mM NaCl, 1 mM EGTA, 0.02% Tween 20, 10 mM MgCl2, 0.1% bovine gamma globulin, 50 ng of recombinant PfDPCK or HsCOASY, 4 to 256 μM dephospho-CoA, and 5 to 300 μM ATP on a black microplate. All reactions were performed for 2 h, reagents A and B were added, and they were then reincubated for 60 min at 30°C. After reactions were terminated by addition of ADP Hunter Stop solution, the fluorescent signal was measured using SpectraMax Paradigm (Molecular Devices, CA, USA) at excitation and emission wavelengths of 530 and 590 nm, respectively. The kinetic parameters were calculated using the nonlinear regression function using the single saturating concentrations of the substrates by the GraphPad Prism software (GraphPad Software Inc., San Diego, CA). The experiments were repeated three times in triplicate using proteins purified from independent cultures. Kinetic values of enzymes are presented as the means ± standard errors (SEs).

[1] = test system: P. falciparum drug-resistant Dd2 strain; test: Erythrocytic-stage parasite growth inhibition, diaphorase-coupled LDH assay, Dd2; assay type: cell-based, Plasmodium falciparum; conditions: Plasmodium falciparum, DD2; Table S1; means ± SEM; read-out: IC50 (μM) Pf cell Dd2
Description: (§1) Selected hit compounds were also tested against erythrocytic-stage parasites of P. falciparum drug-sensitive 3D7 and drug-resistant Dd2 strains ([39]). For the phenotypic assay, parasite cultures were synchronized with 5% (wt/vol) D-sorbitol as previously described ([40]). A synchronized culture containing ring-stage parasites of 0.3% parasitemia was initiated with a culture volume of 25 μL/well on a 384-well plate. A series of diluted compounds (at final concentrations of 50, 10, 2, 0.4, and 0.08 μM) were used to calculate IC50 values. Mefloquine at 50 μM and atovaquone at 20 μM were used as no-growth control (100% inhibition). After 72 h of incubation, parasite growth was measured by diaphorase-coupled lactate dehydrogenase (LDH) assay as previously described ([41]). Absorbance at 650 nm was measured using SpectraMax Paradigm multimode microplate reader (Molecular Devices, San Jose, CA, USA). The IC50 values were calculated as described above.

[2] = test system: P. falciparum drug-sensitive 3D7 strain; test: Erythrocytic-stage parasite growth inhibition, diaphorase-coupled LDH assay, 3D7; assay type: cell-based, Plasmodium falciparum; conditions: Plasmodium falciparum, 3D7; Table S1; means ± SEM; read-out: IC50 (μM) Pf cell 3D7
Description: as §1

PfDPCK, sequence (Q8IL34 entry or part of it): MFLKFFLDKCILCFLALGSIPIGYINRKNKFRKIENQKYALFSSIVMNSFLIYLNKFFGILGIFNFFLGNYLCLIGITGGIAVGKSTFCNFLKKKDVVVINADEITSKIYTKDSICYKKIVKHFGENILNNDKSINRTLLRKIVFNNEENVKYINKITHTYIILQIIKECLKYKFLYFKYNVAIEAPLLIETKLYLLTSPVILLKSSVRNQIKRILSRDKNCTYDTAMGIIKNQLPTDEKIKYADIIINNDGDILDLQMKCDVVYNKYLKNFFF

Ki (PfDPCK; in respect of ATP, 200 μM dephospho-CoA): 10.4 µM
Ki (PfDPCK; in respect of dephospho-CoA, 200 μM ATP): 0.47 µM
IC50 [1]: 9.26 ± 0.26 µM
IC50 [2]: 9.78 ± 0.23 µM
SMILES: CC(C)(C)c1cc(C(=O)Cn2c(NCCO)nc3ccccc32)cc(C(C)(C)C)c1O [Compound A-15]
IC50 (HepG2 cell line): 29.9 ± 3.61 µM
type of inhibition (PfDPCK; in respect of dephospho-CoA and ATP, Lineweaver-Burk plot): competitively inhibits; also recorded: competitive inhibition
